This assay addresses S1P1 (Homo sapiens, UniProt P21453). Nature of the assay: Tango β-arrestin Recruitment Assay in U2OS cells (Assay 2b). The class given is cell-based. The arrangement: linker with TEV protease (N1a) cleavage site (C). The text has this:
For the Tango™ β-arrestin recruitment assay, the cytoplasmic C-terminus of S1P1 is tethered to the tTA transcriptional activator with a linker that contains a cleavage site for the N1a protease from tobacco etch virus (TEV protease). The C-terminus of the human β-arrestin2 protein is fused to TEV protease. Binding of an agonist recruits the β-arrestin-TEV fusion protein to the receptor resulting in cleavage of the linker and release of tTA to enter the nucleus and subsequently activate a tTA-dependent luciferase reporter gene.
Alternatively, U2OS cells expressing the reporter gene and S1P1 (Invitrogen) were added to the wells of a 384-well white opaque bottom assay plate (PerkinElmer) at […] per well. The cells were serum starved for 48 h in Freestyle medium (Invitrogen). Test compounds were tested at maximum concentrations of 1 μM for the agonist assay. Compounds were diluted in DMSO (10 concentration points, 3-fold each) and added to the assay plate at a 1% final DMSO concentration. The efficacy control was 1 μM S1P (Avanti). For each compound, there were duplicate assay plates and each assay plate had duplicate wells per concentration point. The plate was incubated overnight at 37° C. The GeneBLAzer β-lactamase assay reagent (Invitrogen) was added and the plates were incubated for an additional 2 h at room temperature. Fluorescence was measured using an EnVision plate reader (PerkinElmer, Waltham, Mass.) at an excitation wavelength of 409 nm and emission wavelengths of 460 nm and 530 nm. The emission intensity at each wavelength was background subtracted against wells containing medium only and the F460 nm/F530 nm ratio determined for each concentration of the test compounds. Percent activity was calculated as [(test compound ratio−DMSO ratio)/(positive control ratio−DMSO ratio)*100], where the positive control and DMSO ratios are from cells incubated with the efficacy control 1 μM S1P and 1% DMSO, respectively. The percent activities were plotted against compound concentration to determine EC50 using XLFit (IDBS).
Assay 1 is the CNG cAMP Assay as described in Biological Example 1. Assay 2a and 2b are the Tango™ β-arrestin Recruitment Assay in HEK293 and U2OS cells, respectively, as described in Biological Example 2. Assay 3a is the hS1P1R GTPγS Binding Assay as described in Biological Example 3. Assay 3b is the GTP-Eu Binding Assay as described in Biological Example 3. EC50's were measured unless otherwise noted. […] In the table, “nt” means the Compound was not tested and “no” means the compound was tested but had no measurable activity under the assay conditions employed.
In general terms: Activated receptors often draw arrestin, which recruitment assays turn into a signal.

Setting [1] is: Tango β-arrestin Recruitment Assay, read-out: Assay 2b EC50.

Read-outs that look alike come from different tables or passages of the source.

Chain of S1P1 (P21453 whole entry, the tested form may be a part): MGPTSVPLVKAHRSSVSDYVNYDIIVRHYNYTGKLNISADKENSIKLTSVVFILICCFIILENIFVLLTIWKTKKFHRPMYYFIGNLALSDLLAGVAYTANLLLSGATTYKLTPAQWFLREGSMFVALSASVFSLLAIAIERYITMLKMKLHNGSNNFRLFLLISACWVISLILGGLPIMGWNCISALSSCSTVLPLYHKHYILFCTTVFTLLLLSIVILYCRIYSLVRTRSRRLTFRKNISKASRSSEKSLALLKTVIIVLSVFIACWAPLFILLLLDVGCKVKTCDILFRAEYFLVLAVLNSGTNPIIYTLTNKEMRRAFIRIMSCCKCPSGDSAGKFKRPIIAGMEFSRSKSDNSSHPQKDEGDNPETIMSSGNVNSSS
Chain of S1P1 (P32121 whole entry partner, the tested form may be a part): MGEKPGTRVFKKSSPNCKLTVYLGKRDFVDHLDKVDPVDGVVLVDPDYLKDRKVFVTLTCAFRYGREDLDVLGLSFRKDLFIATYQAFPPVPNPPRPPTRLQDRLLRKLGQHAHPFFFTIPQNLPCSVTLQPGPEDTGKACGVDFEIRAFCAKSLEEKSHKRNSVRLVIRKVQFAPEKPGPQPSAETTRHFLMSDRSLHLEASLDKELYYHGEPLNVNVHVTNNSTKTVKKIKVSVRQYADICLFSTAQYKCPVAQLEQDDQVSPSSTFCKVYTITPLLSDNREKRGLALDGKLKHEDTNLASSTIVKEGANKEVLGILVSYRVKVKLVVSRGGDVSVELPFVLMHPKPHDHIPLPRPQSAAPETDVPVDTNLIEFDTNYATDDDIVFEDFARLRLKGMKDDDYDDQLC

`NC(CO)COc1cc(Cl)c(-c2nc(-c3cn4cc(C(F)(F)F)cc(Cl)c4n3)no2)cc1Cl` (centres unmarked) [Example 80, 2-amino-3-[(2,5-dichloro-4-{3-[8-chloro-6-(trifluoromethyl)imidazo[1,2-a]pyridin-2-yl]-1,2,4-oxadiazol-5-yl}phenyl)oxy]propan-1-ol]: the half-maximal effective concentration (EC50) under setting [1] was no more than 100 nM.

`NC(COc1cc(Cl)c(-c2nnc(-c3cn4cc(C(F)(F)F)cc(Cl)c4n3)s2)cc1F)COP(=O)(O)O` (centres unmarked) [Example 82, 2-amino-3-[(5-chloro-4-{5-[8-chloro-6-(trifluoromethyl)imidazo[1,2-a]pyridin-2-yl]-1,3,4-thiadiazol-2-yl}-2-fluorophenyl)oxy]propyl dihydrogen phosphate]: the EC50 under setting [1] is no more than 100 nM.

Consider `NC(CO)COc1cc(Cl)c(-c2nnc(-c3cn4cc(C(F)(F)F)ccc4n3)s2)cc1Cl` (centres unmarked) [Example 100, 2-amino-3-[(2,5;dichloro-4-{5-[6-(trifluomethyl)imidazo[1,2-a]pyridin-2-yl] 1,3,4-thiadiazol-2-yl}phenyl)oxy]propan-1-ol], for which the EC50 under setting [1] is no more than 100 nM.

Regarding `NC(CO)COc1cc(Cl)c(-c2nnc(-c3cn4cc(Cl)ccc4n3)s2)cc1F` (centres unmarked) [Example 101, 2-amino-3-({5-chloro-4-[5-(6-chloroimidazo[1,2-a]pyridin-2-yl)-1,3,4-thiadiazol-2-yl]-2-fluorophenyl}oxy)propan-1-ol], under setting [1], the EC50 is no more than 100 nM.

For the molecule `NC(CO)COc1cc(Cl)c(-c2nnc(-c3cn4cc(I)ccc4n3)s2)cc1F` (centres unmarked) [Example 102, 2-amino-3-({5-chloro-2-fluoro-4-[5-(6-iodoimidazo[1,2-a]pyridin-2-yl)-1,3,4-thiadiazol-2-yl]phenyl}oxy)propan-1-ol], under setting [1], the EC50 was no more than 100 nM.

For `NC(CO)(CO)CCc1cc(Cl)c(-c2noc(-c3cn4cc(C(F)(F)F)cc(Cl)c4n3)n2)cc1F` [Example 154, 2-amino-2-[2-(5-chloro-4-{5-[8-chloro-6-(trifluoromethyl)imidazo[1,2-a]pyridin-2-yl]-1,2,4-oxadiazol-3-yl}-2-fluorophenyl)ethyl]propane-1,3-diol], the EC50 under setting [1] was no more than 100 nM.

For the molecule `C[C@H](CO)Oc1cc(Cl)c(-c2noc(-c3cn4cc(C(F)(F)F)cc(Cl)c4n3)n2)cc1Cl` [Example 155, (2R)-2-[(2,5-dichloro-4-{5-[8-chloro-6-(trifluoromethyl)imidazo[1,2-a]pyridin-2-yl]-1,2,4-oxadiazol-3-yl}phenyl)oxy]propan-1-ol], under setting [1], the EC50 was no more than 100 nM.

As to `C[C@@H](CO)Oc1cc(Cl)c(-c2noc(-c3cn4cc(C(F)(F)F)cc(Cl)c4n3)n2)cc1Cl` [Example 156, (2S)-2-[(2,5-dichloro-4-{5-[8-chloro-6-(trifluoromethyl)imidazo[1,2-a]pyridin-2-yl]-1,2,4-oxadiazol-3-yl}phenyl)oxy]propan-1-ol], the EC50 under setting [1] was no more than 100 nM.

In the case of `CC(O)COc1cc(Cl)c(-c2nc(-c3cn4cc(C(F)(F)F)cc(Cl)c4n3)no2)cc1Cl` (centres unmarked) [Example 178, 1-[(2,5-dichloro-4-{3-[8-chloro-6-(trifluoromethyl)imidazo[1,2-a]pyridin-2-yl]-1,2,4-oxadiazol-5-yl}phenyl)oxy]propan-2-ol], under setting [1], the EC50 was no more than 100 nM.

As for `CC(O)COc1cc(Cl)c(-c2nnc(-c3cn4cc(C(F)(F)F)cc(Cl)c4n3)o2)cc1F` (centres unmarked) [Example 179, 1-[(5-chloro-4-{5-[8-chloro-6-(trifluoromethyl)imidazo[1,2-a]pyridin-2-yl]-1,3,4-oxadiazol-2-yl}-2-fluorophenyl)oxy]propan-2-ol], the EC50 under setting [1] lay within 100 to 500 nM.

In the case of `CC(O)COc1cc(Cl)c(-c2nc(-c3cn4cc(C(F)(F)F)cc(Cl)c4n3)no2)cc1F` (centres unmarked) [Example 184, 1-[(5-chloro-4-{3-[8-chloro-6-(trifluoromethyl)imidazo[1,2-a]pyridin-2-yl]-1,2,4-oxadiazol-5-yl}-2-fluorophenyl)oxy]propan-2-ol], the EC50 under setting [1] was no more than 100 nM.

Regarding `CC(O)CCc1cc(Cl)c(-c2noc(-c3cn4cc(C(F)(F)F)cc(Cl)c4n3)n2)cc1Cl` (centres unmarked) [Example 185, 4-(2,5-dichloro-4-{5-[8-chloro-6-(trifluoromethyl)imidazo[1,2-a]pyridin-2-yl]-1,2,4-oxadiazol-3-yl}phenyl)butan-2-ol], the EC50 under setting [1] is no more than 100 nM.

Turning to `N[C@@H](CO)COc1cc(Cl)c(-c2nnc(-c3cn4cc(C(F)(F)F)cc(Cl)c4n3)s2)cc1Cl` [Example 201, (2S)-2-amino-3-[(2,5-dichloro-4-{5-[8-chloro-6-(trifluoromethyl)imidazo[1,2-a]pyridin-2-yl]-1,3,4-thiadiazol-2-yl}phenyl)oxy]propan-1-ol], under setting [1], the EC50 is no more than 100 nM.

Regarding `NC(CO)COc1cc(Cl)c(-c2nnc(-c3cn4cc(C(F)(F)F)cc(Cl)c4n3)o2)cc1Cl` (centres unmarked) [Example 202, 2-amino-3-[(2,5-dichloro-4-{5-[8-chloro-6-(trifluoromethyl)imidazo[1,2-a]pyridin-2-yl]-1,3,4-oxadiazol-2-yl}phenyl)oxy]propan-1-ol], the concentration giving a half-maximal response (EC50) (Tango β-arrestin, footnote 1: Relative EC50 was measured, read-out: Assay 2b Relative EC50) fell in the range of 100 to 500 nM.

On to `O=C(O)C1CC1c1cc(Cl)c(-c2noc(-c3cn4cc(C(F)(F)F)cc(Cl)c4n3)n2)cc1Cl` (centres unmarked) [Example 211, 2-(2,5-dichloro-4-{5-[8-chloro-6-(trifluoromethyl)imidazo[1,2-a]pyridin-2-yl]-1,2,4-oxadiazol-3-yl}phenyl)cyclopropanecarboxylic acid], for which the EC50 under setting [1] is no more than 100 nM.

As for `NC(CO)COc1cc(Cl)c(-c2nnc(-c3cn4cc(C(F)(F)F)cc(Cl)c4n3)s2)cc1Cl` (centres unmarked) [Example 220, 2-amino-3-[(2,5-dichloro-4-{5-[8-chloro-6-(trifluoromethyl)imidazo[1,2-a]pyridin-2-yl]-1,3,4-thiadiazol-2-yl}phenyl)oxy]propan-1-ol], the EC50 under setting [1] is no more than 100 nM.

In the case of `CC(CCc1cc(Cl)c(-c2noc(-c3cn4cc(C(F)(F)F)cc(Cl)c4n3)n2)cc1Cl)OP(=O)(O)O` (centres unmarked) [Example 221, 3-(2,5-dichloro-4-{5-[8-chloro-6-(trifluoromethyl)imidazo[1,2-a]pyridin-2-yl]-1,2,4-oxadiazol-3-yl}phenyl)-1-methylpropyl dihydrogen phosphate], the concentration for a half-maximal effect (EC50) under setting [1] was no more than 100 nM.

In the case of `NC(CO)COc1cc(Cl)c(-c2nnc(-c3cn4cc(C(F)(F)F)cc(Cl)c4n3)o2)cc1F` (centres unmarked) [Example 222, 2-amino-3-[(5-chloro-4-{5-[8-chloro-6-(trifluoromethyl)imidazo[1,2-a]pyridin-2-yl]-1,3,4-oxadiazol-2-yl}-2-fluorophenyl)oxy]propan-1-ol], the EC50 under setting [1] was no more than 100 nM.

Consider `OC(COc1cc(Cl)c(-c2noc(-c3cn4cc(C(F)(F)F)cc(Br)c4n3)n2)cc1Cl)C(F)(F)F` (centres unmarked) [Example 294, 3-[(4-{5-[8-bromo-6-(trifluoromethyl)imidazo[1,2-a]pyridin-2-yl]-1,2,4-oxadiazol-3-yl}-2,5-dichlorophenyl)oxy]-1,1,1-trifluoropropan-2-ol], for which the EC50 under setting [1] is no more than 100 nM.

For the molecule `O=C(O)CCc1c(F)cc(-c2noc(-c3cn4cc(C(F)(F)F)cc(Cl)c4n3)n2)cc1Cl` [Example 296, 3-(2-chloro-4-{5-[8-chloro-6-(trifluoromethyl)imidazo[1,2-a]pyridin-2-yl]-1,2,4-oxadiazol-3-yl}-6-fluorophenyl)propanoic acid], under setting [1], the EC50 is no more than 100 nM.

As to `Cc1cc(CCC(=O)O)c(Cl)cc1-c1nc(-c2cn3cc(I)cc(Cl)c3n2)no1` [Example 297, 3-{2-chloro-4-[3-(8-chloro-6-iodoimidazo[1,2-a]pyridin-2-yl)-1,2,4-oxadiazol-5-yl]-5-methylphenyl}propanoic acid], the EC50 under setting [1] was no more than 100 nM.

Turning to `CC(N)COc1cc(Cl)c(-c2nnc(-c3cn4cc(C(F)(F)F)cc(Cl)c4n3)s2)cc1F` (centres unmarked) [Example 298, 1-[(5-chloro-4-{5-[8-chloro-6-(trifluoromethyl)imidazo[1,2-a]pyridin-2-yl]-1,3,4-thiadiazol-2-yl}-2-fluorophenyl)pxy]propan-2-amine], for the setting “Tango β-arrestin Recruitment Assay, footnote 1: Relative EC50 was measured, read-out: Assay 2b relative EC50”, the EC50 is 100 to 500 nM.

Regarding `O=C(O)C1CC1c1cc(Cl)c(-c2nc(-c3cn4cc(C(F)(F)F)cc(Cl)c4n3)no2)cc1Cl` (centres unmarked) [Example 299, 2-(2,5-dichloro-4-{3-[8-chloro-6-(trifluoromethyl)imidazo[1,2-a]pyridin-2-yl]-1,2,4-oxadiazol-5-yl}phenyl)cyclopropanecarboxylic acid], the EC50 under setting [1] lay within 100 to 500 nM.

A word on the EC50: it is the concentration needed to bring the measured effect to its halfway point.
